Experimental data taken from article PMC8434099, “Selected Drug-Likeness Properties of 2-Arylidene-indan-1,3-dione Derivatives—Chemical Compounds with Potential Anti-Cancer Activity” (Molecules, 2021).

Experiments:
[1] = Chromatographic (RP-HPLC) examination of lipophilicity, Snyder–Soczewiński model; assay type: physicochemical; settings: for logkw (ACN) / logkw (MeOH): RP-HPLC, extrapolated Snyder–Soczewiński curve; for logkw (ACN) / −S (ACN): acetonitrile as organic modifier; for logkw (MeOH) / −S (MeOH): methanol as organic modifier; for Δ = |logkw-MeOH − logkw-ACN|: difference of logkw between modifiers; for −S (ACN) / −S (MeOH): slope of the Snyder–Soczewiński regression curve; for Compliance with the lipophilicity assumption of the Lipiński’s rule (logkw below 5): analyses using methanol as a modifier
Description: The chromatographic analysis was carried out on a Shimadzu device equipped with a pump system (LC-20AD model), a detector with a diode bench (SPD-M20A model), a degasser (DGU-20A 5R model), a chromatographic oven (CTO-10AS VP), autosampler (SIL-20AC HT model), and chromatographic column (LiChrospher 100 RP-18, 5 μm, Poznań, Poland). Analyses were performed, leading to a multicratic elution. The mobile phase was methanol (J. T. Backer, Phillipsburg, NJ, USA) or acetonitrile (J. T. Backer) and water (Hydrolab, HPL5UV model, Straszyn, Poland) in different volume ratios. In individual analyses, the concentration of the organic modifier expressed as a […] was 0.75–0.95 with a constant step of 0.05. The test compounds were dissolved in methanol. The injection volume was 10 µL. The flow was set at 1 mL/min, the temperature of the chromatography oven at 25 °C, and the detector temperature at 2 °C higher than the ambient temperature. Compounds were detected in the range 190–800 nm. All samples were tested in duplicate at least. Column dead time (tM) was determined using uracil (Sigma Aldrich). The retention coefficient was calculated using the following formula:(1) k=tR/tM−1, where tR is the retention time of the test compound in a given eluent composition, and tM is the chromatographic column dead time.
The value of lipophilicity was determined using the linear dependence of the decimal logarithm from the retention coefficient (logk) and the concentration of the organic modifier in the mobile phase, which was expressed as a volume fraction. For this purpose, the following formula was used:(2) logk=logkw+Sφ, where logk is the decimal logarithm of the retention coefficient, logkw is the value obtained by extrapolating the curve, S is the slope of the regression curve, and φ is the volume fraction of the organic modifier.
The coefficient of determination (R^2) was also calculated for the prepared curves.

[2] = tested on: Human Serum Albumin (HSA); test: Binding to albumin, fluorescence quenching; settings: calculated from association constant KS for albumin concentration in blood of 44 mg/mL (660 μM); for fraction unbound: human, human serum albumin solution (10 µM HSA), pH 7.4, read-out: free fraction (albumin)
Description: Fluorescence lifetime and fluorescence intensity of HSA solutions were measured using the time-resolved Fluorescence Spectrophotometer Life Spec II (Edinburgh Instruments Ltd., Livingston, UK) with the sub-nanosecond pulsed EPLED diode emitting a light of the wavelength 280 nm. The spectrometer was equipped with electronically cooled photomultiplier Hamamatsu R928 connected with TCC900 PC Card, which incorporates all the electronic modules required for Time-Correlated Single Photon Counting (TCSPC). The fluorescence decays were recorded at an emission wavelength of 350 nm. The data were fitted with an exponential decay to obtain total fluorescence intensity and lifetime. Measurements were performed at room temperature using quartz cuvettes 3.5 × 10 mm. The exposure time of the sample was 30 s. A spectrophotometer Jasco V-550 was used for absorption measurements.
Human Serum Albumin (HSA, 97%) was purchased from Sigma Aldrich. For the fluorescence quenching measurements, the 10 µM PBS solution of HSA at pH 7.4 was prepared, and 10 mM stock solutions of studied compounds were prepared in DMSO (dimethylsulfoxide). The final concentration of studied compounds in HSA solution varied between 0 and 70 µM.
Fluorescence quenching of albumin can be described by the Stern–Volmer Equation [21]: (3) F0/F=KSV[Q]+1, where F0 and F are the fluorescence intensities in the absence and presence of quencher, respectively, [Q] is the concentration of quencher, and KSV is the Stern–Volmer quenching constant.
Due to the fact that a quencher can absorb light at the excitation and/or emission wavelengths, the measured intensity should be corrected according to the Formula [22]:(4) Fobserved=Fcorrect×10^−Aex×dex/2−Aem×dem/2, where Fobserved is the measured fluorescence, Fcorrect is the fluorescence that would be measured in the absence of absorption effect, Aex and Aem are the absorbances of ligand at the excitation (280 nm) and emission wavelength (350 nm), respectively, and dex and dem are the cuvette pathlength in the excitation and emission direction (0.35 cm and 1 cm, respectively).
As the fluorophore can be quenched by collisions or by complex formation with the quencher, there are two types of quenching: dynamic and static. They can be distinguished by lifetime measurements. […] If the quenching is known to be dynamic, then:(5) F0/F=KD[Q]+1=τ0/τ, where τ0 and τ are the lifetimes in the absence and presence of quencher, and KD is the dynamic quenching constant.
In many cases, both static and dynamic quenching occurs for the same fluorophore, then modified Stern–Volmer equation has the form:(6) F0/F=(KD[Q]+1)(KS[Q]+1)=τ0/τ(KS[Q]+1),
The dynamic portion of the quenching (KD[Q] + 1), according to Equation (5), can be determined by lifetime measurements. The portion (KS[Q] + 1) relates to static quenching, and KS is the association constant, which is given by:(7) KS=[F−Q]/[F][Q], where [F−Q] is the concentration of complex fluorophore–quencher, [F] is the concentration of uncomplexed fluorophore (concentration of free HSA molecules), and [Q] is the concentration of quencher.
In this study, the tested compounds were added to the HSA solution, and the fluorescence intensity and lifetime at 350 nm were measured for varying concentrations of ligands. On the basis of absorbance measurements of ligands at 280 nm and 350 nm, the correct fluorescence intensities were estimated using Equation (4). Then, the Stern–Volmer constants, dynamic quenching constants, and association constants of studied compounds were determined using Equations (3), (5) and (6), respectively.
Knowing the value of association constant KS, it is possible to determine the theoretical percentage of the bound and free fraction of the drug for the physiological concentration of albumin. […]

[3] = tested on: A549 cells; test: Antiproliferative activity, MTT protocol; assay type: cell-based, human; settings: 0.01 mg/mL, 72 h, relative to control culture
Description: (§1) Mouse melanoma (B16F10), human lung carcinoma (A549), and human cervix (HeLa) cell lines (kindly gifted by Prof. Tomasz Drewa, a Chair of Urology, Department of Regenerative Medicine, Collegium Medicum, Nicolaus Copernicus University, Bydgoszcz, Poland) were cultivated at 37 °C, controlled CO2 atmosphere (Binder, Tuttlingen, Germany), and high humidity with RPMI cell culture medium (with L-glutamine and sodium bicarbonate, Sigma-Aldrich), supplemented with 10% of fetal bovine serum (FBS, Biowest, Nuaillé, France), as well as antibiotics (penicillin, streptomycin) and antimycotics (amphotericin B) (Sigma-Aldrich). Combretastatin A4 (CA4), doxorubicin (DoX), and […] were purchased from Sigma-Aldrich.
(§2) Cells were counted with an automated cell counter (Countess® II FL, Invitrogen by Thermo Fisher Scientific Inc., Waltham, MA, USA). A number of 1 × 10^3 (B16F10, A549) or 2.5 × 10^3 cells were plated in each well of 96-well plate (Nunc Edge 2F, Thermo Fisher Scientific Inc.) and left for 24 h incubation prior to drug administration. After this period, the medium was replaced with a fresh medium containing the drugs (at final concentration of 0.01 mg/mL) and left for incubation for the next 72 h. A solution of thiazol blue tetrazolium (MTT, Sigma-Aldrich) was prepared in PBS at concentration of 5 mg/mL and administrated to the cell culture medium at the volume of 10% of the initial medium volume. After 2 h of incubation, the medium was removed, and crystals of formazan were solubilized in isopropanol (Sigma-Aldrich). Absorbance readout was conducted using plate reader Multiskan Spectrum (Thermo Electron Corporation, Waltham, MA, USA) at 570 nm.
(§3) Combretastatin A4 (CA4), doxorubicin (DX), and […] were employed as positive controls. Biological evaluation was performed as three independent experiments; mean response and standard deviation were calculated using Excel software (v. 2013, Microsoft Corporation, Redmond, WA, USA).

[4] = tested on: HeLa cells; test: Antiproliferative activity, MTT protocol; assay type: cell-based, human; settings: 0.01 mg/mL, 72 h
Description: as §1, §2, §3

Compound	logkw (ACN) [1]	logkw (MeOH) [1]	Δ = |logkw-MeOH − logkw-ACN| [1]	−S (ACN) [1]	−S (MeOH) [1]	bound fraction (albumin) [2]	fraction unbound [2]	Compliance with the lipophilicity assumption of the Lipiński’s rule (logkw below 5) [1]	Inhibition of development and division of A549 cells (in words) [3]	Number of HeLa cells compared to the control culture [4]	Effect on HeLa cells (in words) ([4]; relative to control culture)
O=C1C(=Cc2ccccc2)C(=O)c2ccccc21 [Compound 3A, 2-benzylidene-1H-indene-1,3(2H)-dione]	2.2433	3.3210	1.0777	2.4449	3.3278	97%	0.03	–	–	–	–
CN(C)c1ccc(C=C2C(=O)c3ccccc3C2=O)cc1 [Compound 3B, 2-{[4-(dimethylamino)phenyl]methylidene}-1H-indene-1,3(2H)-dione]	2.2394	3.2790	1.0396	2.3613	3.1597	94%	0.06	–	–	–	–
COc1ccc(C=C2C(=O)c3ccccc3C2=O)cc1 [Compound 3C, 2-(4-methoxybenzylidene)-1H-indene-1,3(2H)-dione]	2.3042	3.3554	1.0512	2.4879	3.2782	94%	0.06	–	–	–	–
Cc1ccc(Oc2ccc(C=C3C(=O)c4ccccc4C3=O)cc2)cc1 [Compound 3D, 2-{[4-(4-methylphenoxy)phenyl]methylidene}-1H-indene-1,3(2H)-dione]	3.5726	5.6763	2.1037	3.5570	5.4798	97%	0.03	do not meet this basic assumption of the Lipiński’s rule	most strongly inhibited	–	–
COc1ccc(C=C2C(=O)c3ccccc3C2=O)cc1O [Compound 3E, 2-[(3-hydroxy-4-methoxyphenyl)methylidene]-1H-indene-1,3(2H)-dione]	1.5356	2.2321	0.6965	1.9201	2.4114	97%	0.03	–	–	–	–
COc1ccc2c(OC)ccc(C=C3C(=O)c4ccccc4C3=O)c2c1 [Compound 3G, 2-[(4,7-dimethoxynaphthalen-1-yl)methylidene]-1H-indene-1,3(2H)-dione]	2.8533	–	1.7531	2.8762	–	88%	0.12	–	most strongly inhibited	7.15 ± 3.12%	more effective than the control compounds
O=C1C(=Cc2ccoc2)C(=O)c2ccccc21 [Compound 3H, 2-[(furan-3-yl)methylidene]-1H-indene-1,3(2H)-dione]	1.9162	2.5521	0.6359	2.2011	2.6243	95%	0.05	–	–	–	–
O=C1C(=Cc2ccc(N(c3ccccc3)c3ccccc3)cc2)C(=O)c2ccccc21 [Compound 3I, 2-{[4-(diphenylamino)phenyl]methylidene}-1H-indene-1,3(2H)-dione]	3.8489	5.3524	1.5035	3.7589	5.0483	83%	0.17	do not meet this basic assumption of the Lipiński’s rule	–	–	–
O=C1C(=Cc2ccc(O)cc2)C(=O)c2ccccc21 [Compound 3J, 2-[(4-hydroxyphenyl)methylidene]-1H-indene-1,3(2H)-dione]	–	2.3814	1.3880	–	2.5802	96%	0.04	–	–	–	–
O=C1C(=CC2=Cc3cc(O)ccc3OC2)C(=O)c2ccccc21 [Compound 3K, 2-[(6-hydroxy-2H-1-benzopyran-3-yl)methylidene]-1H-indene-1,3(2H)-dione]	1.7720	2.9717	1.1997	2.1213	3.0667	92%	0.08	–	–	–	–
